According to ChEMBL document CHEMBL4808220, “Discovery of novel pyrazolopyrimidine derivatives as potent mTOR/HDAC bi-functional inhibitors via pharmacophore-merging strategy” (Bioorg Med Chem Lett, 2021):
Activity calls are given as the source filed them. No cut-off for these calls is given here.

How the values were obtained:
Histone deacetylase 1 = Histone deacetylase 1 (Homo sapiens, UniProt Q13547); assay: Inhibition of HDAC1 (unknown origin)
[1] = target: T1, Serine/threonine-protein kinase mTOR (Homo sapiens, UniProt P42345); assay: Inhibition of mTOR (unknown origin)
HCT-116 = assay: Antiproliferative activity against human HCT-116 cells assessed as reduction in cell viability; format: functional, cell-based
MV4-11 = assay: Antiproliferative activity against human MV4-11 cells harboring FLT3-ITD mutant assessed as reduction in cell viability; format: functional, cell-based
A549 = assay: Antiproliferative activity against human A549 cells assessed as reduction in cell viability; format: functional, cell-based
[2] = target: T2, Histone deacetylase (Homo sapiens) (UniProt Q13547+O15379+Q9UBN7+Q92769+Q9UQL6+Q8WUI4+Q9BY41+Q96DB2+P56524+Q9UKV0+Q969S8); assay: Inhibition of HDAC in human MV4-11 cells assessed as increase in acetylation of histone H3 (ac-H3 K9) by Western blot analysis relative to control; format: cell-based
[3] = target: T3, Protein deacetylase HDAC6 (Homo sapiens, UniProt Q9UBN7); assay: Inhibition of HDAC6 (unknown origin)
T3 sequence (Q9UBN7 whole entry): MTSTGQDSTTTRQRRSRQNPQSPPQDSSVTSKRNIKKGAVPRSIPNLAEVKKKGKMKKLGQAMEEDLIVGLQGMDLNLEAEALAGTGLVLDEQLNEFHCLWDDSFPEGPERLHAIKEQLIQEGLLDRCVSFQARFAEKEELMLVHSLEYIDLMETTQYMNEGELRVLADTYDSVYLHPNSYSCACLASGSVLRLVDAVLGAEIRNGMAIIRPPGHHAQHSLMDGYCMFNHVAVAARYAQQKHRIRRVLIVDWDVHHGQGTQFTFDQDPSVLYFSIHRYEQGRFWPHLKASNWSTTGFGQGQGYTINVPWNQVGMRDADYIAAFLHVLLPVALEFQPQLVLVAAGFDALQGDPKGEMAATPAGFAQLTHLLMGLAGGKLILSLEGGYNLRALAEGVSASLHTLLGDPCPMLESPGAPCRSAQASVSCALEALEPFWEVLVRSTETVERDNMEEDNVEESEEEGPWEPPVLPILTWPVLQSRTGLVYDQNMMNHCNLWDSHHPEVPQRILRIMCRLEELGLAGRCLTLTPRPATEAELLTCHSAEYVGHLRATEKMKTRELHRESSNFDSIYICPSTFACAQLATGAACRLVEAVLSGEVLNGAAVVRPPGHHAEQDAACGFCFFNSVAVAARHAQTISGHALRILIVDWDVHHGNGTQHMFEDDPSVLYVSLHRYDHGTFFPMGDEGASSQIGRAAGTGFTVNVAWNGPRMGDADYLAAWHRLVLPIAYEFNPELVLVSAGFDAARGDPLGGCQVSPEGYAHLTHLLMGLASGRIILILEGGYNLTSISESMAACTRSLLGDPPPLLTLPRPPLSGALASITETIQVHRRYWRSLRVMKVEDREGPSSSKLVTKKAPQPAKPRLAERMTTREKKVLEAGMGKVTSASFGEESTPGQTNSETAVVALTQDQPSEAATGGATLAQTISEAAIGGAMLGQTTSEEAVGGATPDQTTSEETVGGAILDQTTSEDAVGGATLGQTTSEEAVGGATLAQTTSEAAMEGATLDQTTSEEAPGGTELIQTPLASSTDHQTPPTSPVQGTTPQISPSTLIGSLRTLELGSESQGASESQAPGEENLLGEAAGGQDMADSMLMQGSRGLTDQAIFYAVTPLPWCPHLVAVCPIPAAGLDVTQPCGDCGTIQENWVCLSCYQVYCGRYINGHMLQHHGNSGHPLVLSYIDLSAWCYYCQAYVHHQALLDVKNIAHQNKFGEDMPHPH

[4] = target: T1, Serine/threonine-protein kinase mTOR; assay: Inhibition of mTOR complexes in human MV4-11 cells assessed as reduction in p-AKT(Ser473) protein level at 300 nM by Western blot analysis relative to control; format: cell-based
Histone deacetylase 8 = target: T4, Histone deacetylase 8 (Homo sapiens, UniProt Q9BY41); assay: Inhibition of HDAC8 (unknown origin)
T4 sequence (Q9BY41 whole entry): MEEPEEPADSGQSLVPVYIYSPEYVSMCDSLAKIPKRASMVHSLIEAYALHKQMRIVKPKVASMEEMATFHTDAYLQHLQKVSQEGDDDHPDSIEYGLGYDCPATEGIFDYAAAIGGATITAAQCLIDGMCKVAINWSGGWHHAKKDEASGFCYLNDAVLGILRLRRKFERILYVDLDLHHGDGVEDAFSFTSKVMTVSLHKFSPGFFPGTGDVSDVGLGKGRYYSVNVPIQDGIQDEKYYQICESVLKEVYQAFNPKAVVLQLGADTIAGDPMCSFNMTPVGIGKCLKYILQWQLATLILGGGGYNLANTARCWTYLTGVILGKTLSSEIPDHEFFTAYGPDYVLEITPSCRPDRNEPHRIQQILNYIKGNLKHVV

Histone deacetylase 11 = target: T5, Histone deacetylase 11 (Homo sapiens, UniProt Q96DB2); assay: Inhibition of HDAC11 (unknown origin)
T5 sequence (Q96DB2 whole entry): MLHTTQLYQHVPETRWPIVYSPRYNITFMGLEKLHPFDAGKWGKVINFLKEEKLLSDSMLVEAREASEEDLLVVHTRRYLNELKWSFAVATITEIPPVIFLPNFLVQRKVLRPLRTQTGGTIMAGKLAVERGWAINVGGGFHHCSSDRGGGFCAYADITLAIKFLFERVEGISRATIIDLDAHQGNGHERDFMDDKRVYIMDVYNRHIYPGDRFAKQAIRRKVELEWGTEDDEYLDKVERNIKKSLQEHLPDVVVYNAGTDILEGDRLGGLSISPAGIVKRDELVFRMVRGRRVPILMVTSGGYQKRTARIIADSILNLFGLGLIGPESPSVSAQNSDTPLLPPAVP

[5] = target: T2, Histone deacetylase (Homo sapiens); assay: Inhibition of HDAC in human MV4-11 cells assessed as increase in acetylation of alpha-tubulin at Lys40 residue by Western blot analysis relative to control; format: cell-based
[6] = target: T1, Serine/threonine-protein kinase mTOR; assay: Inhibition of mTOR complexes in human MV4-11 cells assessed as suppression of phosphorylation of S6 ribosomal at Ser235/236 residues at 300 nM by Western blot analysis relative to control; format: cell-based

Histone deacetylase 1, sequence (Q13547 whole entry): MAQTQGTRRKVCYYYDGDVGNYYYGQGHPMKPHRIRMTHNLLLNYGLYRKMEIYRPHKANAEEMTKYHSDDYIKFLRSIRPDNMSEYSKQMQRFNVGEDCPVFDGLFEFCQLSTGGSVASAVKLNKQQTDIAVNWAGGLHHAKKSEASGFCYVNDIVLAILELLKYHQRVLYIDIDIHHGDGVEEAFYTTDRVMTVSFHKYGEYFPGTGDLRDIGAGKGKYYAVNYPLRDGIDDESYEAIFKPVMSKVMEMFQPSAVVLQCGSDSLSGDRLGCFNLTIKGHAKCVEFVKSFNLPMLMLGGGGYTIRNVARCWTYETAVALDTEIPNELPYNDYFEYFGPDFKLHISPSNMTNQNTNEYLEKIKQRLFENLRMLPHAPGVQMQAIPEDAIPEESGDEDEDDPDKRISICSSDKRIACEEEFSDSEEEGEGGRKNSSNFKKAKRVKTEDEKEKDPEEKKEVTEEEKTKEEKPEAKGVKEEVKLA

## Nc1nc2cc(-c3nn(CCCCC(=O)NO)c4ncnc(N)c34)ccc2o1
Histone deacetylase 1
  IC50: 83 nM
[1]
  IC50: 3.76 nM

## Nc1ncc(-c2nn(CCCCC(=O)NO)c3ncnc(N)c23)cn1
Histone deacetylase 1
  IC50: 479 nM
[1]
  IC50: > 1000 nM

## Nc1nc2cc(-c3nn(CC4CCN(C(=O)c5ccc(C(=O)NO)s5)CC4)c4ncnc(N)c34)ccc2o1
Histone deacetylase 1
  IC50: 5.9 nM
HCT-116
  IC50: > 10000 nM
MV4-11
  IC50: 5210 nM
[1]
  IC50: 0.4 nM
A549
  IC50: 5900 nM

## Nc1ncc(-c2nn(CCCCCCC(=O)NO)c3ncnc(N)c23)cn1
Histone deacetylase 1
  IC50: 11 nM
[1]
  IC50: > 1000 nM

## Nc1nc2cc(-c3nn(Cc4ccc(C(=O)NO)s4)c4ncnc(N)c34)ccc2o1
Histone deacetylase 1
  IC50: 12 nM
[1]
  IC50: 27 nM

## Nc1nc2cc(-c3nn(Cc4ccc(C(=O)NO)o4)c4ncnc(N)c34)ccc2o1
Histone deacetylase 1
  IC50: > 1000 nM
[1]
  IC50: 18 nM

## Nc1nc2cc(-c3nn(Cc4ccc(C(=O)NO)cc4)c4ncnc(N)c34)ccc2o1
Histone deacetylase 1
  IC50: 5 nM
[1]
  IC50: 18 nM

## Nc1nc2cc(-c3nn(CC4CCN(C(=O)CCCCC(=O)NO)CC4)c4ncnc(N)c34)ccc2o1
Histone deacetylase 1
  IC50: 65 nM
[1]
  IC50: 1.9 nM

## Nc1nc2cc(-c3nn(Cc4ccc(C(=O)NO)cn4)c4ncnc(N)c34)ccc2o1
Histone deacetylase 1
  IC50: 11 nM
[1]
  IC50: 25 nM

## Nc1ncnc2c1c(-c1cnc3ccccc3c1)nn2CCCCC(=O)NO
Histone deacetylase 1
  IC50: 65 nM
[1]
  IC50: 677 nM

## Nc1ccc(-c2nn(CCCCCCC(=O)NO)c3ncnc(N)c23)cn1
Histone deacetylase 1
  IC50: 7.3 nM
[1]
  IC50: 151 nM

## Nc1nc2cc(-c3nn(CC4CCN(C(=O)c5ccc(C(=O)NO)cc5)CC4)c4ncnc(N)c34)ccc2o1
Histone deacetylase 1
  IC50: 12 nM
[1]
  IC50: 0.84 nM

## Nc1ccc(-c2nn(CCCCC(=O)NO)c3ncnc(N)c23)cn1
Histone deacetylase 1
  IC50: > 1000 nM
[1]
  IC50: > 1000 nM

## Nc1ncnc2c1c(-c1cnc3ccccc3c1)nn2CCCCCCC(=O)NO
Histone deacetylase 1
  IC50: 4.1 nM
[1]
  IC50: 619 nM

## Nc1nc2cc(-c3nn(CC4CCN(c5ncc(C(=O)NO)cn5)CC4)c4ncnc(N)c34)ccc2o1
[2]
  inhibition: Dose-Dependent Effect
[3]
  IC50: 86 nM
[4]
  inhibition: Active
Histone deacetylase 1
  IC50: 0.91 nM
HCT-116
  IC50: 3850 nM
Histone deacetylase 8
  IC50: 27 nM
Histone deacetylase 11
  IC50: > 1000 nM
MV4-11
  IC50: 1740 nM
[1]
  IC50: 0.49 nM
A549
  IC50: 2160 nM
[5]
  inhibition: Dose-Dependent Effect
[6]
  inhibition: Active

## Nc1nc2cc(-c3nn(CCCCCCC(=O)NO)c4ncnc(N)c34)ccc2o1
[3]
  IC50: 1.5 nM
Histone deacetylase 1
  IC50: 0.78 nM
HCT-116
  IC50: 3780 nM
Histone deacetylase 8
  IC50: 21 nM
Histone deacetylase 11
  IC50: > 1000 nM
MV4-11
  IC50: 4130 nM
[1]
  IC50: 1.7 nM
A549
  IC50: 2860 nM
